From US9724318B2, “Compositions for improving mental concentration” (priority 2001, dated 2017) come the findings set out here.

A short description of this series: acute toxic test using a mouse, oral administration. The conditions noted are these: oral administration at 5 g/kg. The class given is in vivo. An excerpt:
The theanine used in the present invention has high safety. […] Also, especially L-theanine is known as a main component of umami (tastiness) of the green tea, and is also used as a food additive giving umami, without the limitation of its added amount under the regulation for food hygiene. Moreover, contrary to the conventional drugs, since there is no adverse action by theanine at all, the mind-concentration is safely and effectively achieved according to the composition of the present invention, whereby working efficiency, learning efficiency or the like, or sports performance can be improved.

As to `CCNC(=O)CC[C@H](N)C(=O)O` [theanine, γ-glutamyl ethylamide], the “abnormalities in the general states, weight and the like” value was “no abnormalities”; the “cases of death in acute toxic test” value is reported as “no cases of death”.
